This is an account of results in patent publication US10603345B2, “Pharmaceutical composition for treating respiratory disease” (Kunming Institute of Botany, The Chinese Academy of Sciences, priority 2015, dated 2020).

The structures appear in SMILES notation.

Format in all cases: in vivo
The test system of assay [1] is IgE in serum of asthma model mouse. In words: Effect on IgE in serum of asthma model mouse. The conditions noted are these: ELISA, ig 7 d, dose/kg: dexamethasone 2.0 mg, Test group 1 50, 2 25, picrinine 5.0, vallesamine 3.0, scholaricine 3.0, 19-epi-scholaricine 3.5 mg, x ± SD. As to the method: (§1) Animal source: 25˜30 g male ICR mouse, from laboratory animal department of Kunming Medical University, License No. SCXK (Dian) 2011-0004.
(§2) Method and route: ovalbumin (OVA) was used to induce mouse asthma model, and after intragastrical administration for 7 d at a dose of 20 mL/kg, the animal was sacrificed at the eighth day.
(§3) Test group 1: picrinine, vallesamine, scholaricine and 19-epischolaricine prepared in Example 1.7 were homogeneously mixed at different ratios by weight (50 mg/kg), Test group 2: the alkaloid composition prepared in Example 1.4 (25 mg/kg). […]
(§4) Sample preparation: all the samples were prepared by using 0.5% carboxymethylcellulose sodium (0.5% CMC-Na).
Group and dose: In Test group 1, the ratio of picrinine, vallesamine, scholaricine and 19-epischolaricine by weight was 30:33:27:6, and the other groups and doses thereof were as described in Example 11.
Test index: immunoglobulin IgE in serum was used as index, and was determined by enzyme linked immunosorbent assay.
On the technique in general: In an ELISA, binding on a coated surface is turned into a signal by an enzyme label.

The test system of assay [2] is IL-4 in BALF of asthma model mouse. The experiment in a line: Effect on IL-4 in BALF of asthma model mouse. The settings on record: ELISA, ig 7 d, dose/kg: dexamethasone 2.0 mg, Test group 1 50, 2 25, picrinine 5.0, vallesamine 3.0, scholaricine 3.0, 19-epi-scholaricine 3.5 mg, x ± SD. As to the method:
as §1, §2, §3, §4
Group and dose: in Test group 1, the ratio of picrinine, vallesamine, scholaricine and 19-epischolaricine by weight was 25:18:15:3, and the other groups and doses thereof were as described in Example 11. […]

For assay [3], the system named is IL-10 in BALF of asthma model mouse. In words: Effect on IL-10 in BALF of asthma model mouse. The settings on record: ELISA, ig 7 d, dose/kg: dexamethasone 2.0 mg, Test group 1 50, 2 25, picrinine 5.0, vallesamine 3.0, scholaricine 3.0, 19-epi-scholaricine 3.5 mg, x ± SD. How it is done: as §1, §2, §3, §4
Group and dose: in Test group 1, the ratio of picrinine, vallesamine, scholaricine and 19-epischolaricine by weight was 18:13:14:3, and the other groups and doses thereof were as described in Example 11.
Test index: IL-10 in BALF was used as index, and was determined by enzyme linked immunosorbent assay.

For assay [4], the system named is CRP in serum in COPD model mouse. In words: Effect on CRP in serum in COPD model mouse. The conditions noted are these: ELISA, ig 7 d, dose/kg: dexamethasone 1 mg, Test group 1 50, 2 25, 3 10, picrinine 10, vallesamine 6, scholaricine 7, 19-epi-scholaricine 2 mg, x ± SD. How it is done:
as §1
(§5) Method and route: lipopolysaccharide (LPS) plus smoke exposure was used for 30 days to induce mouse chronic obstructive pulmonary disease model; and after intragastrical administration for 7 d at a dose of 20 mL/kg, the animal was sacrificed at the eighth day.
(§6) Picrinine group (10 mg/kg), Vallesamine group (6.0 mg/kg), Scholaricine group (7.0 mg/kg), 19-epischolaricine group (2.0 mg/kg).
as §4
Group and dose: in Test group 1, the ratio of picrinine, vallesamine, scholaricine and 19-epischolaricine by weight was 25:19:20:4, and the other groups and doses thereof were as described in Example 10.
Test index: CRP in serum was used as index, and was determined by enzyme linked immunosorbent assay.

The subject of assay [5] is SOD in serum and homogenate of COPD model mouse. The experiment in a line: Effect on SOD in serum and homogenate of COPD model mouse. The settings on record: ig 7 d, dose/kg: dexamethasone 1 mg, Test group 1 50, 2 25, 3 10, picrinine 10, vallesamine 6, scholaricine 7, 19-epi-scholaricine 2 mg, x ± SD; for SOD homogenate: lung homogenate. As to the method:
as §1, §5, §6, §4
Group and dose: in Test group 1, the ratio of picrinine, vallesamine, scholaricine and 19-epischolaricine by weight was 16:11:12:3, and the other groups and doses thereof were as described in Example 10.
Test index: SOD in serum and lung homogenate was used as index, and was determined by xanthine oxidase method.

Assay [6] deals with SOD in serum and BALF of asthma model mouse. In words: Effect on SOD in serum and BALF of asthma model mouse. The settings on record: ig 7 d, dose/kg: dexamethasone 2.0 mg, Test group 1 50, 2 25, picrinine 5.0, vallesamine 3.0, scholaricine 3.0, 19-epi-scholaricine 3.5 mg, x ± SD; for SOD lavage fluid: BALF. As to the method: as §1, §2, §3, §4
Group and dose: in Test group 1, the ratio of picrinine, vallesamine, scholaricine and 19-epischolaricine by weight was 12:10:9:2, and the other groups and doses thereof were as described in Example 11.
Test index: SOD in serum and BALF was used as index, and was determined by xanthine oxidase method.

The subject of assay [7] is IL-6 in serum of COPD model mouse. In words: Effect on IL-6 in serum of COPD model mouse. The conditions noted are these: ELISA, ig 7 d, dose/kg: dexamethasone 1 mg, Test group 1 50, 2 25, 3 10, picrinine 10, vallesamine 6, scholaricine 7, 19-epi-scholaricine 2 mg, x ± SD. As to the method: as §1, §5, §6, §4
Group and dose: in Test group 1, the ratio of picrinine, vallesamine, scholaricine and 19-epischolaricine by weight was 38:30:27:7, and the other groups and doses thereof were as described in Example 10.
Test index: IL-6 in serum was used as index, and was determined by enzyme linked immunosorbent assay.

For assay [8], the system named is white blood cell count and classification in BALF of COPD model mouse. In words: Effect on white blood cell count and classification in BALF of COPD model mouse. The conditions noted are these: COPD mouse (LPS plus smoke exposure 30 days), ig 7 d, dose/kg: dexamethasone 1 mg, Test group 1 50, 2 25, 3 10, picrinine 10, vallesamine 6, scholaricine 7, 19-epi-scholaricine 2 mg, x ± SD. As to the method: as §1, §5, §6, §4
Group and dose: in Test group 1, the ratio of picrinine, vallesamine, scholaricine and 19-epischolaricine by weight was 48:40:29:10, and the other groups and doses thereof were as described in Example 10.
Test index: total number of white blood cells and inflammatory cell classification in bronchoalveolar lavage fluid (BALF) were used as indexes, and were determined by full-automatic hemocytometer.

In assay [9] the test system is Eotaxin in serum of asthma model mouse. In words: Effect on Eotaxin in serum of asthma model mouse. The settings on record: ELISA, ig 7 d, dose/kg: dexamethasone 2.0 mg, Test group 1 50, 2 25, picrinine 5.0, vallesamine 3.0, scholaricine 3.0, 19-epi-scholaricine 3.5 mg, x ± SD. How it is done: as §1, §2, §3, §4
Group and dose: in Test group 1, the ratio of picrinine, vallesamine, scholaricine and 19-epischolaricine by weight was 37:42:30:8, and the other groups and doses thereof were as described in Example 11.
Test index: eosinophil chemotactic factor (Eotaxin) in serum was used as index, and was determined by enzyme linked immunosorbent assay.

Assay [10] deals with MDA in serum and homogenate of COPD model mouse. The experiment in a line: Effect on MDA in serum and homogenate of COPD model mouse. The conditions noted are these: ig 7 d; for content of MDA (serum or homogenate not given): vallesamine 6, scholaricine 7, 19-epi-scholaricine 2 mg/kg; for MDA Homogenate: lung homogenate; for MDA Homogenate / MDA Serum: dose/kg: dexamethasone 1 mg, Test group 1 50, 2 25, 3 10, picrinine 10, vallesamine 6, scholaricine 7, 19-epi-scholaricine 2 mg, x ± SD. How it is done: as §1, §5, §6, §4
Group and dose: in Test group 1, the ratio of picrinine, vallesamine, scholaricine and 19-epischolaricine by weight was 9:6:5:1, and the other groups and doses thereof were as described in Example 10.
Test index: MDA in serum and homogenate was used as index, and was determined by thibabituric acid method.

The subject of assay [11] is MDA in serum and BALF of asthma model mouse. The experiment in a line: Effect on MDA in serum and BALF of asthma model mouse. The settings on record: ig 7 d, dose/kg: dexamethasone 2.0 mg, Test group 1 50, 2 25, picrinine 5.0, vallesamine 3.0, scholaricine 3.0, 19-epi-scholaricine 3.5 mg, x ± SD; for MDA lavage fluid: BALF. As to the method: as §1, §2, §3, §4
Group and dose: in Test group 1, the ratio of picrinine, vallesamine, scholaricine and 19-epischolaricine by weight was 8:6:5:1, and the other groups and doses thereof were as described in Example 11.
Test index: MDA in serum and BALF was used as index, and was determined by thiobarbituric acid method.

In the case of `C/C=C1/CN2CC[C@@H]1[C@@](CO)(C(=O)OC)c1[nH]c3ccccc3c1C2` [vallesamine], in assay [1], the IgE was determined as 3.57 ± 0.99 µg/mL. This compound registered an IL-4 in assay [2] of 11.61 ± 2.40 pg/mL. Moreover, the IL-10 in assay [3] came out at 14.83 ± 3.49 pg/mL. In addition, in assay [4], the CRP stood at 23.8 ± 1.9 pg/mL. In assay [5], the SOD homogenate came out at 58.43 ± 5.73 U/mL and the “SOD Serum” value is listed as 91.72 ± 12.34 U/mL. In assay [6], this compound yielded an SOD lavage fluid of 70.88 ± 8.52 U/mL and an SOD Serum of 70.53 ± 7.77 U/mL. Also, in assay [7], the IL-6 turned out to be 25.0 ± 3.6 pg/mL. Also, in assay [8], the Leukocyte number is 1.8 ± 1.7 ×10^5/mL and the Neutrophil number is recorded as 0.75 ± 0.51 ×10^5/mL. In assay [9], the Eotaxin is on record as 8.90 ± 2.36 pg/mL. In addition, in assay [10], the “content of MDA (serum or homogenate not given)” value is on record as “significantly decrease”, the “MDA Homogenate” value is listed as 7.12 ± 1.44 nmol/mL and the “MDA Serum” value turned out to be 11.07 ± 1.29 nmol/mL. In assay [11], this compound had an MDA lavage fluid of 2.92 ± 1.48 nmol/mL and an MDA Serum of 13.36 ± 6.10 nmol/mL.
In the case of `COC(=O)C1=C2Nc3c(O)cccc3[C@@]23CCN2C[C@@H]([C@H](C)O)[C@@H]1C[C@H]23` [19-epi-scholaricine, 19-epischolaricine], the IgE in [1] worked out at 3.55 ± 0.87 µg/mL. For the same compound, the IL-4 in assay [2] is 11.16 ± 3.58 pg/mL. The compound further came in with an SOD homogenate in assay [5] of 61.32 ± 9.35 U/mL. Further, in assay [6], the SOD lavage fluid was found to be 71.82 ± 12.39 U/mL and the SOD Serum worked out at 73.85 ± 7.93 U/mL. This compound showed an IL-6 in assay [7] of 23.3 ± 4.1 pg/mL. In [8], the Leukocyte number is given as 2.0 ± 1.6 ×10^5/mL. Moreover, in assay [9], the Eotaxin was found to be 8.74 ± 1.40 pg/mL. Moreover, in assay [10], the “content of MDA (serum or homogenate not given)” value was “significantly decrease”, the “MDA Homogenate” value is reported as 6.03 ± 0.66 nmol/mL and the “MDA Serum” value is given as 10.94 ± 1.67 nmol/mL. In assay [11], this compound displayed an MDA lavage fluid of 2.55 ± 1.47 nmol/mL and an MDA Serum of 13.55 ± 4.66 nmol/mL.
Take `C/C=C1/CN2[C@@H]3C[C@@]45c6ccccc6N[C@]4(O3)[C@@H]2C[C@@H]1[C@H]5C(=O)OC` [picrinine]: the IgE in [1] was 3.85 ± 0.72 µg/mL. The IL-4 in assay [2] is reported as 12.60 ± 4.39 pg/mL. This compound also displayed an IL-10 in assay [3] of 13.00 ± 3.15 pg/mL. This compound showed a CRP in assay [4] of 23.5 ± 2.2 pg/mL. In assay [5], the SOD homogenate is 56.01 ± 12.78 U/mL and the “SOD Serum” value is 91.15 ± 10.90 U/mL. In assay [6], the SOD lavage fluid is on record as 62.32 ± 8.22 U/mL and the SOD Serum was found to be 70.31 ± 7.30 U/mL. For the same compound, in assay [7], the IL-6 came out at 23.9 ± 3.9 pg/mL. The Leukocyte number in assay [8] was 2.1 ± 1.8 ×10^5/mL. In [9], this compound came in with an Eotaxin of 9.03 ± 1.80 pg/mL. Further, in assay [10], the “MDA Homogenate” value is 6.17 ± 1.46 nmol/mL and the “MDA Serum” value came to 11.21 ± 4.46 nmol/mL. Moreover, in assay [11], the MDA lavage fluid is 3.29 ± 2.07 nmol/mL and the MDA Serum is on record as 14.03 ± 5.71 nmol/mL.
